Laboratory results: US9682028B2, “Personal care photoprotective compositions with tricyclodecane amides” (Conopco, Inc., priority 2013, dated 2017)
Read-outs that look alike come from different tables or passages of the source.

What was measured:
[1] = tested on: human sebocytes; experiment: Sebocyte assay (sebum suppression, 14C-acetate incorporation); assay type: cell-based; conditions: for inhibition at 10 µM: read-out: % Reduction at 10 microMolar; for inhibition at 100 µM: read-out: % Reduction at 100 microMolar
Description: Sebum suppression effect of the tricyclodecane amides suitable for use in the present invention was investigated.
Secondary cultures of human sebocytes obtained from an adult […] were grown in 96-well tissue culture plates (Packard) until three days post-confluence. Sebocyte growth medium consisted of Clonetics Keratinocyte Basal Medium (KBM) supplemented with 14 μg/ml bovine pituitary extract, 0.4 μg/ml hydrocortisone, 5 μg/ml insulin, 10 ng/ml epidermal growth factor, 1.2×10^−10 M cholera toxin, 100 units/ml penicillin, and 100 μg/ml streptomycin. All cultures were incubated at 37° C. in the presence of 5% CO2. Medium was changed three times per week.
On the day of experimentation, the growth medium was removed and the sebocytes washed three times with sterile Dulbecco's Modified Eagle Medium (DMEM; phenol red free). Fresh DMEM was added to each sample (triplicates) with 5-microliters of test agent solubilized in ethanol. Controls consisted of addition ethanol alone. Each plate was returned to the incubator for 20-hours followed by the addition of ^14C-acetate buffer (5 mM final concentration, 56 mCi/mmol specific activity). Sebocytes were returned to the incubator for 4-hours after which each culture was rinsed 3-times with phosphate buffered saline to remove unbound label. Radioactive label remaining in the sebocytes was determined using a Packard Microbeta, scintillation counter. Phenol Red, a known sebum suppressive agent, was employed as a positive control.

[2] = In vitro SPF evaluation (Optometric 290S SPF meter, PMMA plate); assay type: physicochemical; conditions: summary of Table 2
Description: SPF, UV-A, and UV-B improvement of compositions within the scope of the invention was investigated.
In vitro SPF measurement was done using the Optometric 290S SPF meter. The product was applied at a dosage of 2 mg/cm^2 on PMMA (polymethylmethacrylate) plate (7 cm×7 cm) and allowed to air dry for 30 minutes. The average SPF value was obtained from 6 SPF readings per plate. Two duplicated runs, the standard deviation from the average was ±2 SPF units. % increase of in vitro SPF versus control calculation: (measured SPF for selected formulation−measured SPF of control)/measured SPF of control×100.

[3] = In vitro MPF evaluation (monochromatic protection factor); assay type: physicochemical; conditions: summary of Table 4
Description: MPF=monochromatic protection factor=1/Transmittance at a specific wavelength (lower transmittance gives higher MPF therefore higher absorption for the sunscreen). 305 nm=UVB, 360 nm=UVA. MPF was measured using the same apparatus as SPF above. MPF % increase over control (measured MPF at 305 nm and 360 nm for selected formulation−measured MPF at 305 nm and 360 nm of control)/measured MPF at 305 nm and 360 nm of control×100.

[4] = 10 microMolar test agent, 20 h incubation then 4 h 14C-acetate, radioactive label remaining in sebocytes
[5] = 100 microMolar test agent, 20 h incubation then 4 h 14C-acetate, radioactive label remaining in sebocytes

Row | Structure (SMILES) | inhibition at 10 µM [1, 4] [%] | inhibition at 100 µM [1, 5] [%] | other results
1 | O=C(N1CCOCC1)C12CC3CC(CC(C3)C1)C2 [Compound C1, Methanone, (morphonyl)tricyclo[3.3.1.1^3,7]dec-1-yl-] | 35.4 | 78.5 | –
2 | O=C(N1CCCCC1)C12CC3CC(CC(C3)C1)C2 [Compound C2, Methanone, (piperidiny)tricyclo[3.3.1.1^3,7]dec-1-yl-] | 34.3 | 51.6 | –
3 | O=C(N1CCC1)C12CC3CC(CC(C3)C1)C2 [Compound C4, Methanone, (azetidinyl)tricyclo[3.3.1.1^3,7]dec-1-yl-] | – | – | inhibition at 10 µM [1]: 16.3%; inhibition at 100 µM [1]: 27.9%
4 | O=C(N1CCCCCC1)C12CC3CC(CC(C3)C1)C2 [Compound C5, Methanone, (hexahydroazepinyl)tricyclo[3.3.1.1^3,7]dec-1-yl-] | 32.4 | 50.5 | –
5 | N#CC1CCN(C(=O)C23CC4CC(CC(C4)C2)C3)CC1 [Compound C6, Methanone, (4-cyano-piperidinyl)tricyclo[3.3.1.1^3,7]dec-1-yl] | 24.8 | 39.4 | –
6 | NC(=O)C1CCN(C(=O)C23CC4CC(CC(C4)C2)C3)CC1 [Compound C7, Methanone, (4-amido-piperidinyl)tricyclo[3.3.1.1^3,7]dec-1-yl-] | 58.9 | 73.4 | –
7 | O=C(NC12CC3CC(CC(C3)C1)C2)C12CC3CC(CC(C3)C1)C2 [Compound C8, Methanone, (Tricyclo[3.3.1.1^3,7]decanyl)-N-tricyclo[3.3.1.1^3,7]dec-1-yl-] | 19.1 | 58.8 | –
8 | O=C(N1CCC2CCCCC2C1)C12CC3CC(CC(C3)C1)C2 (stereo not drawn) [Compound C9, Methanone, (decahydroisoquinolinyl)tricyclo[3.3.1.1^3,7]dec-1-yl-] | 81.2 | 86.8 | –
9 | O=C(N1CCCC2CCCCC21)C12CC3CC(CC(C3)C1)C2 (stereo not drawn) [Compound C10, Methanone, (decahydroquinolinyl)tricyclo[3.3.1.1^3,7]dec-1-yl-] | 63.4 | 89.6 | –
10 | CC1(C)CCCN(C(=O)C23CC4CC(CC(C4)C2)C3)C1 [Compound C11, Methanone, (3,3-dimethyl-1-piperidinyl)tricyclo[3.3.1.1^3,7]dec-1-yl] | 39.3 | 76.6 | –
11 | CC1CCCCN1C(=O)C12CC3CC(CC(C3)C1)C2 (stereo not drawn) [Compound C12, Methanone, (2-methyl-1-piperidinyl)tricyclo[3.3.1.1^3,7]dec-1-yl-] | – | – | inhibition at 10 µM [1]: 24.5%; inhibition at 100 µM [1]: 51%
12 | CC1CCN(C(=O)C23CC4CC(CC(C4)C2)C3)CC1 [Compound C13, Methanone, (4-methyl-1-piperidinyl)tricyclo[3.3.1.1^3,7]dec-1-yl] | 63.5 | 90.4 | –
13 | CC1CCCN(C(=O)C23CC4CC(CC(C4)C2)C3)C1 (stereo not drawn) [Compound C14, Methanone, (3-methyl-1-piperidinyl)tricyclo[3.3.1.1^3,7]dec-1-yl] | – | – | inhibition at 10 µM [1]: 52.8%; inhibition at 100 µM [1]: 76%
14 | CC1CC(C)CN(C(=O)C23CC4CC(CC(C4)C2)C3)C1 (stereo not drawn) [Compound C15, Methanone, (3,5-dimethyl-1-piperidinyl)tricyclo[3.3.1.1^3,7]dec-1-yl-] | 40.1 | 71 | –
15 | CCC1(C)CCN(C(=O)C23CC4CC(CC(C4)C2)C3)CC1 [Compound C16, Methanone, (4-methyl-4-ethy-piperidinyl)tricyclo[3.3.1.1^3,7]dec-1-yl-] | 49.8 | 80.7 | –
16 | CCC1(CC)CCN(C(=O)C23CC4CC(CC(C4)C2)C3)C1 [Compound C17, Methanone, (3,3-diethyl-pyrrolidinyl)tricyclo[3.3.1.1^3,7]dec-1-yl-] | 32.2 | 65.2 | –
17 | CC(C)N(C(=O)C12CC3CC(CC(C3)C1)C2)C(C)C [Compound C18, Methanone, (N,N-diisopropyl)tricyclo[3.3.1.1^3,7]dec-1-yl-] | – | – | inhibition at 10 µM [1]: 42%; inhibition at 100 µM [1]: 52.5%
18 | CC(C)(C)CCNC(=O)C12CC3CC(CC(C3)C1)C2 [Compound C19, Methanone, (3,3-dimethylbutylaminyl)tricyclo[3.3.1.1^3,7]dec-1-yl-] | 35.9 | – | –
19 | CC(C)(C)CNC(=O)C12CC3CC(CC(C3)C1)C2 [Compound C20, Methanone, (2,2-dimethylpropylaminyl)tricyclo[3.3.1.1^3,7]dec-1-yl-] | 49.5 | 82.8 | –
20 | CC(C)(C)CC(C)(C)NC(=O)C12CC3CC(CC(C3)C1)C2 [Compound C21, Methanone, (1,1-dimethyl-3,3-dimethylbutylaminyl)tricyclo[3.3.1.1^3,7]dec-1-yl-] | 26.4 | 43.5 | –
21 | CC(C)CC(C)NC(=O)C12CC3CC(CC(C3)C1)C2 (stereo not drawn) [Compound C22, Methanone, (1,3-dimethyl-butylaminyl)tricyclo[3.3.1.1^3,7]dec-1-yl-] | – | – | inhibition at 10 µM [1]: 29.1%; inhibition at 100 µM [1]: 45.3%
22 | O=S1(=O)OC(c2ccc(O)cc2)(c2ccc(O)cc2)c2ccccc21 [Phenol Red, reference compound] | 17.1 | 65.1 | –
23 | CCCCCCCCCCCCCCCCCC(N)=O [octadecanamide] | – | – | SPF protection improvement (in words) [2]: did not achieve these improvements; UV-A and UV-B protection improvement (in words) [3]: did not achieve these improvements
